Test results: patent US20240083857A1, “2-Methyl-Quinazolines” (Bayer Pharma Aktiengesellschaft, priority 2017, published 2024)

Columns and labels:
[1] = target: human SOS1 (loading of human K-Ras^G12C-GDP with fluorescent GTP-analog) (Homo sapiens, UniProt Q07889); assay: Biochemical assay 3: K-Ras^G12C activation assay by hSOS1 (HTRF); conditions: no GTP; for IC50: read-out: Assay 3 (KRAS-Activation by SOS no GTP) activity expressed as IC50; for inhibition at 20 µM: read-out: Assay 3 (KRAS-Activation by SOS no GTP) activity expressed as % inhibition at 20 μM
[2] = target: K-Ras^G12C : hSOS1 interaction (Homo sapiens, UniProt Q07889); assay: Biochemical assay 1: K-Ras^G12C interaction assay with hSOS1 (HTRF); format: binding; conditions: read-out: Assay 1 (KRAS-SOS Interaction) activity expressed as IC50

Compound	IC50 [1] [nM]	IC50 [2] [nM]	inhibition at 20 µM [1] [%]
COc1cc2nc(C)nc(N[C@H](C)c3cccc(-c4cnc5n4CCC5)c3)c2cc1OC [Example 261, N-{(1R)-1-[3-(6,7-dihydro-5H-pyrrolo[1,2-a]imidazol-3-yl)phenyl]ethyl}-6,7-dimethoxy-2-methylquinazolin-4-amine]	1100	839	–
COc1cc2nc(C)nc(NC(C)c3ccc(-c4ccccc4CN(C)C)s3)c2cc1OC (centres unmarked) [Example 262, N-[1-(5-{2-[(dimethylamino)methyl]phenyl}thiophen-2-yl)ethyl]-6,7-dimethoxy-2-methylquinazolin-4-amine]	51.1	40.3	–
CNCc1ccccc1-c1cc(C(C)Nc2nc(C)nc3cc(OC)c(OC)cc23)cs1 (centres unmarked) [Example 263, 6,7-dimethoxy-2-methyl-N-[1-(5-{2-[(methylamino)methyl]phenyl}thiophen-3-yl)ethyl]quinazolin-4-amine]	324	237	–
COc1cc2nc(C)nc(NC(C)c3cc(Br)cs3)c2cc1OC (centres unmarked) [Example 264, N-[1-(4-bromothiophen-2-yl)ethyl]-6,7-dimethoxy-2-methylquinazolin-4-amine]	4610	5940	–
COc1cc2nc(C)nc(NC(C)c3ccc(-c4cccc(CN)c4)s3)c2cc1OC (centres unmarked) [Example 265, N-[1-{5-[3-(aminomethyl)phenyl]thiophen-2-yl}ethyl]-6,7-dimethoxy-2-methylquinazolin-4-amine]	1110	2770	–
COc1cc2nc(C)nc(NC(C)c3ccc(-c4ccc(CN)cc4)s3)c2cc1OC (centres unmarked) [Example 266, N-[1-{5-[4-(aminomethyl)phenyl]thiophen-2-yl}ethyl]-6,7-dimethoxy-2-methylquinazolin-4-amine]	3740	3610	–
COc1cc2nc(C)nc(NC(C)c3cc(-c4ccn(CCN5CCCC5)n4)cs3)c2cc1OC (centres unmarked) [Example 267, 6,7-dimethoxy-2-methyl-N-[1-(4-{1-[2-(pyrrolidin-1-yl)ethyl]-1H-pyrazol-3-yl}thiophen-2-yl)ethyl]quinazolin-4-amine]	1780	3390	–
CNCc1ccccc1-c1cccc([C@@H](C)Nc2nc(C)nc3cc(OC)c(OC)cc23)c1 [Example 268, 6,7-dimethoxy-2-methyl-N-[(1R)-1-{2′-[(methylamino)methyl]biphenyl-3-yl}ethyl]quinazolin-4-amine]	189	166	–
COc1cc2nc(C)nc(NC(C)c3cc(-c4ccc(F)cc4CN)cs3)c2cc1OC (centres unmarked) [Example 269, N-[1-{4-[2-(aminomethyl)-4-fluorophenyl]thiophen-2-yl}ethyl]-6,7-dimethoxy-2-methylquinazolin-4-amine]	135	162	–
COc1cc2nc(C)nc(NC(C)c3cc(-c4ccccc4CN)cs3)c2cc1OC (centres unmarked) [Example 270, N-[1-{4-[2-(aminomethyl)phenyl]thiophen-2-yl}ethyl]-6,7-dimethoxy-2-methylquinazolin-4-amine]	98	91.4	–
COc1cc2nc(C)nc(NC(C)c3cc(-c4cnc5n4CCC5)cs3)c2cc1OC (centres unmarked) [Example 272, N-{1-[4-(6,7-dihydro-5H-pyrrolo[1,2-a]imidazol-3-yl)thiophen-2-yl]ethyl}-6,7-dimethoxy-2-methylquinazolin-4-amine]	2500	1820	–
COc1cc2nc(C)nc(NC(C)c3cc(-c4ccn(CCO)n4)cs3)c2cc1OC (centres unmarked) [Example 273, 2-[3-(5-{1-[(6,7-dimethoxy-2-methylquinazolin-4-yl)amino]ethyl}thiophen-3-yl)-1H-pyrazol-1-yl]ethanol]	3630	2320	–
COc1cc2nc(C)nc(N[C@H](C)c3cccc(-c4ccc(F)cc4CN)c3)c2cc1OC [Example 274, N-{(1R)-1-[2′-(aminomethyl)-4′-fluorobiphenyl-3-yl]ethyl}-6,7-dimethoxy-2-methylquinazolin-4-amine]	214	130	–
COc1cc2nc(C)nc(NC(C)c3ccc(-c4ccc(CN)o4)s3)c2cc1OC (centres unmarked) [Example 275, N-[1-{5-[5-(aminomethyl)furan-2-yl]thiophen-2-yl}ethyl]-6,7-dimethoxy-2-methylquinazolin-4-amine]	6370	2800	–
COc1cc2nc(C)nc(NC(C)c3ccc(-c4ccc(CN)s4)s3)c2cc1OC (centres unmarked) [Example 276, N-{1-[5′-(aminomethyl)-2,2′-bithiophen-5-yl]ethyl}-6,7-dimethoxy-2-methylquinazolin-4-amine]	2160	1410	–
COc1cc2nc(C)nc(NC(C)c3ccc(-c4ccccc4CNCC(=O)c4c[nH]c5ccccc45)s3)c2cc1OC (centres unmarked) [Example 277, 2-{[2-(5-{1-[(6,7-dimethoxy-2-methylquinazolin-4-yl)amino]ethyl}thiophen-2-yl)benzyl]amino}-1-(1H-indol-3-yl)ethanone]	263	214	–

Compound	IC50 [1] [nM]	IC50 [2] [nM]	inhibition at 20 µM [1] [%]
COc1cc2nc(C)nc(NC(C)c3ccc(-c4cccc5sc(C(N)=O)c(N)c45)s3)c2cc1OC (centres unmarked) [Example 278, 3-amino-4-(5-{1-[(6,7-dimethoxy-2-methylquinazolin-4-yl)amino]ethyl}thiophen-2-yl)-1-benzothiophene-2-carboxamide]	–	12500	43
COC(=O)CNCc1ccccc1-c1ccc(C(C)Nc2nc(C)nc3cc(OC)c(OC)cc23)s1 (centres unmarked) [Example 281, methyl N-[2-(5-{1-[(6,7-dimethoxy-2-methylquinazolin-4-yl)amino]ethyl}thiophen-2-yl)benzyl]glycinate]	367	559	–
COc1cc2nc(C)nc(NC(C)c3ccc(-c4ccccc4CNCC(=O)N4CCOCC4)s3)c2cc1OC (centres unmarked) [Example 285, 2-{[2-(5-{1-[(6,7-dimethoxy-2-methylquinazolin-4-yl)amino]ethyl}thiophen-2-yl)benzyl]amino}-1-(morpholin-4-yl)ethanone]	161	203	–
COc1cc2nc(C)nc(NC(C)c3ccc(-c4cc(C)n(C)c4C#N)s3)c2cc1OC (centres unmarked) [Example 286, 3-(5-{1-[(6,7-dimethoxy-2-methylquinazolin-4-yl)amino]ethyl}thiophen-2-yl)-1,5-dimethyl-1H-pyrrole-2-carbonitrile]	–	16700	36
COc1cc2nc(C)nc(NC(C)c3ccc(-c4cscc4C#N)s3)c2cc1OC (centres unmarked) [Example 287, 5-{1-[(6,7-dimethoxy-2-methylquinazolin-4-yl)amino]ethyl}-2,3′-bithiophene-4′-carbonitrile]	5760	5880	–
CCN(CC)Cc1ccccc1-c1ccc(C(C)Nc2nc(C)nc3cc(OC)c(OC)cc23)s1 (centres unmarked) [Example 288, N-[1-(5-{2-[(diethylamino)methyl]phenyl}thiophen-2-yl)ethyl]-6,7-dimethoxy-2-methylquinazolin-4-amine]	247	170	–
COc1cc2nc(C)nc(NC(C)c3ccc(-c4ccccc4CN4CCCC(C(N)=O)C4)s3)c2cc1OC (centres unmarked) [Example 290, 1-[2-(5-{1-[(6,7-dimethoxy-2-methylquinazolin-4-yl)amino]ethyl}thiophen-2-yl)benzyl]piperidine-3-carboxamide]	159	176	–
COc1cc2nc(C)nc(NC(C)c3ccc(-c4ccccc4CN(C)CC(F)F)s3)c2cc1OC (centres unmarked) [Example 291, N-{1-[5-(2-{[(2,2-difluoroethyl)(methyl)amino]methyl}phenyl)thiophen-2-yl]ethyl}-6,7-dimethoxy-2-methylquinazolin-4-amine]	2230	1120	–
COc1cc2nc(C)nc(NC(C)c3ccc(-c4cc(Cl)ccc4CN)s3)c2cc1OC (centres unmarked) [Example 292, N-[1-{5-[2-(aminomethyl)-5-chlorophenyl]thiophen-2-yl}ethyl]-6,7-dimethoxy-2-methylquinazolin-4-amine]	41.3	31.5	–
COc1cc2nc(C)nc(NC(C)c3ccc(-c4ccc(F)cc4CNC(=O)c4ncc[nH]4)s3)c2cc1OC (centres unmarked) [Example 293, N-[2-(5-{1-[(6,7-dimethoxy-2-methylquinazolin-4-yl)amino]ethyl}thiophen-2-yl)-5-fluorobenzyl]-1H-imidazole-2-carboxamide]	8200	2750	–
COc1cc2nc(C)nc(NC(C)c3ccc(-c4ccc(F)cc4CNC(=O)c4cnc[nH]4)s3)c2cc1OC (centres unmarked) [Example 294, N-[2-(5-{1-[(6,7-dimethoxy-2-methylquinazolin-4-yl)amino]ethyl}thiophen-2-yl)-5-fluorobenzyl]-1H-imidazole-5-carboxamide]	8580	3100	–
COc1cc2nc(C)nc(NC(C)c3ccc(-c4ccc(F)cc4CNC(=O)CNCC(F)(F)F)s3)c2cc1OC (centres unmarked) [Example 295, N-[2-(5-{1-[(6,7-dimethoxy-2-methylquinazolin-4-yl)amino]ethyl}thiophen-2-yl)-5-fluorobenzyl]-N^2-(2,2,2-trifluoroethyl)glycinamide]	2780	980	–
COc1cc2nc(C)nc(NC(C)c3ccc(-c4ccccc4CNCCO)s3)c2cc1OC (centres unmarked) [Example 297, 2-{[2-(5-{1-[(6,7-dimethoxy-2-methylquinazolin-4-yl)amino]ethyl}thiophen-2-yl)benzyl]amino}ethanol]	60.6	46	–
COc1cc2nc(C)nc(NC(C)c3ccc(-c4ccccc4CN(C)CCO)s3)c2cc1OC (centres unmarked) [Example 298, 2-{[2-(5-{1-[(6,7-dimethoxy-2-methylquinazolin-4-yl)amino]ethyl}thiophen-2-yl)benzyl](methyl)amino}ethanol]	58.8	47.2	–
COc1cc2nc(C)nc(NC(C)c3ccc(-c4ccc(F)cc4CNC(=O)CNc4ccccc4)s3)c2cc1OC (centres unmarked) [Example 299, N-[2-(5-{1-[(6,7-dimethoxy-2-methylquinazolin-4-yl)amino]ethyl}thiophen-2-yl)-5-fluorobenzyl]-N^2-phenylglycinamide]	1880	948	–
